As a reminder, the IC50 is the concentration at which inhibition is half-maximal. One may read the EC50 as the concentration at which the effect is half-maximal.

The nature of data set [1]: Inhibition of human KGA assessed as reduction in glutamate formation using glutamine as substrate pretreated with 0.5 hr followed by substrate addition and measured after 4 hrs by KGA/GDH coupled assay.
A short description of data set [2]: Inhibition of Escherichia coli GDH using glutamate as substrate pre treated with 1 hr followed by substrate addition and measured after 1 hr.
The nature of data set [3]: Inhibition of Escherichia coli TrxR pre treated with 0.5 hr followed by DTNB addition and measured after 1 hr.
For data set [4], the system named is HCT-116. As to the kind of experiment: Antiproliferative activity against human HCT116 cells assessed as reduction in cell viability after 5 days by EZMTT assay. It is filed as functional, cell-based. The following applies: HCT-116, 120 h.
A short description of data set [5]: Stability of the compound in basic (NH3.H2O) solution at 37 degC for 24 hrs by HPLC analysis. The format is physicochemical.
A short description of data set [6]: Stability of the compound in oxidative (H2O2) solution at 37 degC for 24 hrs by HPLC analysis. The format is physicochemical.
A short description of data set [7]: Stability of the compound in acidic (HCOOH) solution at 37 degC for 24 hrs by HPLC analysis. It is filed as physicochemical.
Data set [8] in a line: Stability of the compound in nucleophilic (beta-ME) solution at 37 degC for 24 hrs by HPLC analysis. The format is physicochemical.
A short description of data set [9]: Stability of the compound in nucleophilic (DTT) solution at 37 degC for 24 hrs by HPLC analysis. It is filed as physicochemical.
A short description of data set [10]: Stability of the compound in nucleophilic (lysine) solution at 37 degC for 24 hrs by HPLC analysis. The format is physicochemical.

With `COc1ccc(C(=O)O)c([Te]c2cc(OC)ccc2C(=O)O)c1`, the IC50 in data set [1] was 11.3 µM; in data set [2] it was more than 66.7 µM; in data set [3], more than 66.7 µM. The EC50 in data set [4] was 7.5 µM.

Regarding `CCOC(=O)c1cc(Br)ccc1[Te]c1ccc(Br)cc1C(=O)OCC`, the half-maximal inhibitory concentration (IC50) in data set [1], in [2] and in data set [3] was more than 66.7 µM each time. Besides, the EC50 in data set [4] is more than 50 µM.

In the case of `CNC(=O)c1cc(Br)ccc1[Te]c1ccc(Br)cc1C(=O)NC`, the IC50 in data set [1], in data set [2] and in data set [3] was more than 66.7 µM each time. Moreover, the EC50 in data set [4] was more than 50 µM.

`Cc1ccc([Te]c2ccc(C)cc2C(=O)O)c(C(=O)O)c1`: the concentration for half-maximal inhibition (IC50) in data set [1] was 10.2 µM; in [2], more than 66.7 µM; in data set [3], more than 66.7 µM. The EC50 in data set [4] was determined as 16.9 µM.

Regarding `COc1cccc(C(=O)O)c1[Te]c1c(OC)cccc1C(=O)O`, the half-maximal inhibitory concentration (IC50) in data set [1], in [2] and in data set [3] was more than 66.7 µM in each case. Besides, the EC50 in data set [4] was more than 50 µM.

Regarding `O=C(O)c1cc(I)ccc1[Te]c1ccc(I)cc1C(=O)O`, the 50% inhibitory concentration (IC50) in data set [1] is 7.4 µM; in data set [2] it was more than 66.7 µM; in [3] it was more than 66.7 µM. Moreover, the EC50 in data set [4] amounted to 25.6 µM.

Regarding `O=C(Nc1ccccc1)c1cc(Br)ccc1[Te]c1ccc(Br)cc1C(=O)Nc1ccccc1`, the half-inhibitory concentration (IC50) in [1], in data set [2] and in data set [3] was more than 66.7 µM each time. Also, in data set [4], the EC50 is more than 50 µM.

For the compound `CCNC(=O)c1cc(Br)ccc1[Te]c1ccc(Br)cc1C(=O)NCC`, the 50% inhibitory concentration (IC50) in [1] was 62.8 µM; in data set [2] it was more than 66.7 µM; in [3], more than 66.7 µM. The EC50 in [4] is more than 50 µM.

For the compound `O=C(O)c1ccccc1[Te]c1ccccc1C(=O)O`, the values for the half-maximal inhibitory concentration (IC50) in data set [1], in data set [2] and in data set [3] were 7 µM, more than 66.7 µM and more than 66.7 µM, respectively. In addition, the 50% effective concentration (EC50) in data set [4] is 17.8 µM.

`COc1ccc([Te]c2ccc(OC)cc2C(=O)O)c(C(=O)O)c1`: the IC50 was 7.8 µM in data set [1], more than 66.7 µM in data set [2] and more than 66.7 µM in data set [3]. Also, the concentration giving a half-maximal response (EC50) in [4] was found to be 10.2 µM.

Take `O=C(OCc1ccccc1)c1cc(Br)ccc1[Te]c1ccc(Br)cc1C(=O)OCc1ccccc1`: the IC50 in data set [1], in data set [2] and in [3] was more than 66.7 µM throughout. The EC50 in data set [4] is more than 50 µM.

Consider `O=C(O)c1cc(O)ccc1[Te]c1ccc(O)cc1C(=O)O`, for which the half-maximal inhibitory concentration (IC50) is 6.3 µM in [1], more than 66.7 µM in [2] and more than 66.7 µM in data set [3]. The EC50 in data set [4] amounted to 18 µM.

Turning to `O=C(O)c1cc(Br)ccc1[Te]c1ccc(Br)cc1C(=O)O`, the results for the IC50 in data set [1], in [2] and in data set [3] were 2.4 µM, more than 66.7 µM and more than 66.7 µM, respectively. The EC50 in [4] is 5 µM. For the same compound, the Stability entry in data set [5] was “Stable”; in data set [6], “Stable”; in data set [7], “Stable”; in [8] it was “Unstable”; in data set [9], “Unstable”; in data set [10], “Unstable”.

Take `COC(=O)c1cc(Br)ccc1[Te]c1ccc(Br)cc1C(=O)OC`: the concentration for half-maximal inhibition (IC50) in [1], in [2] and in [3] was more than 66.7 µM in each case. Also, the concentration for a half-maximal effect (EC50) in data set [4] is more than 50 µM.
